According to patent publication US9687550B2, “Compositions for nucleic acid delivery” (Arbutus Biopharma Corporation, priority 2009, dated 2017):

Assay: pKa of lipid
Assay type: physicochemical

## CCCCCCCCCCCCCCCCCCC(CCCCCCCCCCCCCCCCCC)OC(=O)CCCN(C)C [compound 111]
  pKa: > 7.4
